Reference: the NIST ThermoML archive (doi:10.1016/j.jct.2010.11.006)
Numbers after ± are expanded uncertainties.

What was measured:
[1] = Molar enthalpy of transition or fusion; details: Crystal; DSC
[2] = Crystal; for Normal melting temperature: DTA
[3] = molar enthalpy of vaporization or sublimation; details: 298.15 K; Crystal; Calver Calorimeter- drop method

Row | Compound | Molar enthalpy of transition or fusion [1] [kcal/mol] | molar enthalpy of sublimation ([2]; 298.15 K, Calver Calorimeter- drop method) [kcal/mol] | Normal melting temperature [2] [°C] | molar enthalpy [3] [kcal/mol]
1 | O=C1CSc2ccccc2N1 [2H-1,4-benzothiazin-3(4H)-one] | 6.04 ± 0.143 | 28.2 ± 1.82 | 178.24 ± 0.39 | 
2 | O=c1[nH]sc2ccccc12 [1,2-benzisothiazol-3(2H)-one] | 4.99 ± 0.117 |  | 155.64 ± 0.39 | 26.9 ± 1.2
